Experimental data published in patent publication US20200037600A1, “MESOIONIC IMIDAZOPYRIDINES AS INSECTICIDES” (Bayer Aktiengesellschaft, priority 2017, published 2020).

Assays:
Type in all cases: in vivo
[1] = tested on: Myzus persicae; experiment: Myzus persicae oral test; conditions: after 5 days
Description: Solvent: 100 parts by weight of acetone
To produce a suitable active compound formulation, 1 part by weight of active compound is dissolved with the stated parts by weight of solvent and made up to the desired concentration with water.
50 μl of the active compound formulation are transferred into microtitre plates and made up to a final volume of 200 μl with 150 μl of IPL41 insect medium (33%+15% sugar). Subsequently, the plates are sealed with parafilm, which a mixed population of green peach aphids (Myzus persicae) within a second microtitre plate is able to puncture and imbibe the solution.
(§1) After 5 days, the efficacy in % is determined. 100% means that all the aphids have been killed; 0% means that no aphids have been killed.

[2] = tested on: Myzus persicae; experiment: Myzus persicae spray test; conditions: application rate 500 g/ha, Chinese cabbage leaf discs, after 5 days
Description: Myzus persicae—Spray Test
(§2) Solvent: 78 parts by weight of acetone • • 1.5 parts by weight of dimethylformamide
(§3) Emulsifier: alkylaryl polyglycol ether
(§4) To produce a suitable active compound formulation, 1 part by weight of active compound is dissolved with the specified parts by weight of solvent and made up to the desired concentration with water containing an emulsifier concentration of 1000 ppm. To produce further test concentrations, the formulation is diluted with emulsifier-containing water.
Discs of Chinese cabbage leaves (Brassica pekinensis) infested by all stages of the green peach aphid (Myzus persicae) are sprayed with an active compound formulation of the desired concentration.
as §1

[3] = tested on: Diabrotica balteata; experiment: Diabrotica balteata spray test; conditions: application rate 160 μg/well, beetle larvae on germinated wheat grains, after 7 days
Description: Diabrotica balteata—Spray Test
as §2, §3, §4
Pre-swollen wheat grains (Triticum aestivum) are incubated in a multiwell plate filled with agar and a little water for one day (5 seed grains per well). The germinated wheat grains are sprayed with an active compound preparation of the desired concentration. Subsequently, each cavity is infected with 10-20 beetle larvae of Diabrotica balteata.
After 7 days, the efficacy in % is determined. 100% means that all maize plants have grown as in the untreated, uninfected control; 0% means that no maize plant has grown.

Row | Compound | efficacy [2] | efficacy ([1]; application rate 4 ppm) | also measured
1 | O=C(CCl)c1c([O-])[n+]2ccccc2n1Cc1ccc(Cl)nc1 [Example I-001] | – | – | efficacy ([1]; application rate 20 ppm): 100%
2 | O=C(c1c([O-])[n+]2ccccc2n1Cc1ccc(Cl)nc1)C(F)(F)F [Example I-002] | 100% | 100% | efficacy ([1]; application rate 20 ppm): 100%; efficacy [3]: 100%
3 | CC(=O)c1c([O-])[n+]2ccccc2n1Cc1ccc(Cl)nc1 [Example I-003] | – | 90% | efficacy ([1]; application rate 20 ppm): 100%
4 | O=C(Cn1cc(Cl)cn1)c1c([O-])[n+]2ccccc2n1Cc1ccc(Cl)nc1 [Example I-006] | – | – | efficacy ([1]; application rate 20 ppm): 100%
5 | COCC(=O)c1c([O-])[n+]2ccccc2n1Cc1ccc(Cl)nc1 [Example I-009] | – | 100% | efficacy ([1]; application rate 20 ppm): 100%
6 | O=C(c1c([O-])[n+]2ccccc2n1Cc1cncnc1)C(F)(F)F [Example I-012] | – | 100% | efficacy ([1]; application rate 20 ppm): 100%
7 | CCC(=O)c1c([O-])[n+]2ccccc2n1Cc1cnc(Cl)s1 [Example I-014] | – | 100% | efficacy [3]: 80%
8 | O=C(NCC1CC1)c1c([O-])[n+]2ccccc2n1Cc1cnc(Cl)s1 [Example I-016] | – | 90% | efficacy [3]: 100%
9 | CNC(=O)c1c([O-])[n+]2ccccc2n1Cc1cnc(Cl)s1 [Example I-017] | – | 100% | efficacy [3]: 100%
10 | O=C(CBr)c1c([O-])[n+]2ccccc2n1Cc1cnc(Cl)s1 [Example I-020] | 90% | 100% | –
11 | O=C(NCc1ccccc1)c1c([O-])[n+]2ccccc2n1Cc1cnc(Cl)s1 [Example I-022] | – | – | efficacy [3]: 100%
12 | O=C(c1ccc(Cl)cc1)c1c([O-])[n+]2ccccc2n1Cc1cnc(Cl)s1 [Example I-030] | – | 100% | efficacy [3]: 100%
13 | O=C(c1c([O-])[n+]2ccccc2n1Cc1cnc(Cl)s1)C1CC1 [Example I-031] | – | 90% | efficacy [3]: 100%
14 | COC(=O)C(=O)c1c([O-])[n+]2ccccc2n1Cc1cnc(Cl)s1 [Example I-032] | 100% | 100% | –
15 | O=C(OCC(F)(F)F)C(=O)c1c([O-])[n+]2ccccc2n1Cc1cnc(Cl)s1 [Example I-036] | 90% | 100% | –
16 | O=C(OCc1cccc(Cl)n1)C(=O)c1c([O-])[n+]2ccccc2n1Cc1cnc(Cl)s1 [Example I-042] | 100% | – | –
17 | Cc1ccc[n+]2c([O-])c(C(=O)C(=O)OCC3CC3)n(Cc3cnc(Cl)s3)c12 [Example I-047] | – | – | pest or weed control at 500 g/ha ([2]; Myzus persicae, foliar, 120 h, read-out: efficacy): 90%; pest or weed control at 4 ppm ([1]; Myzus persicae, po, 120 h, application rate 4 ppm, read-out: efficacy): 100%; pest or weed control at 160 µg/disc, 160 µg/well ([3]; Diabrotica balteata, 168 h, read-out: efficacy): 100%
18 | O=C(c1cccc(C(F)(F)F)c1)c1c([O-])[n+]2ccccc2n1Cc1cncnc1 [Example I-049] | 90% | 100% | –
19 | O=C(OCC(F)F)C(=O)c1c([O-])[n+]2ccccc2n1Cc1cnc(Cl)s1 [Example I-051] | 90% | 100% | –
20 | O=C(OCCc1ccccc1)C(=O)c1c([O-])[n+]2ccccc2n1Cc1cnc(Cl)s1 [Example I-052] | – | 100% | –
21 | O=C(OCc1ccccc1)C(=O)c1c([O-])[n+]2ccccc2n1Cc1cnc(Cl)s1 [Example I-053] | – | 100% | –
22 | O=C(OCCC(F)(F)F)C(=O)c1c([O-])[n+]2ccccc2n1Cc1cnc(Cl)s1 [Example I-054] | 70% | 100% | –
23 | C#CCOC(=O)C(=O)c1c([O-])[n+]2ccccc2n1Cc1cnc(Cl)s1 [Example I-055] | 90% | 100% | –
24 | CC(C)=CCOC(=O)C(=O)c1c([O-])[n+]2ccccc2n1Cc1cnc(Cl)s1 [Example I-057] | 90% | 100% | –
25 | CC(C)(C)OC(=O)C(=O)c1c([O-])[n+]2ccccc2n1Cc1cnc(Cl)s1 [Example I-066] | 90% | 90% | –
